In patent US20190090476A1, “MICROEMULSIONS FOR AGRICULTURAL USE” (Florida Chemical Company, Inc., priority 2017, published 2019):
Where two headings read alike, the source gives them in different places.

How the values were obtained:
[1] = cited from earlier work; for δD: energy from dispersion forces; for δH: energy from hydrogen bonds; for δP: energy from polar intermolecular force
[2] = HSP distance Ra and relative energy difference RED of solvents versus plant wax HSP values; conditions: for RED 1: RED=Ra 1/Ro; for RED 1 / RED 2: Ro=7.1; for RED 2: RED=Ra 2/Ro
Source text: The HSP distance between two molecules, conventionally called Ra, is the measure of how alike they are. The smaller the Ra, the more likely they are to be compatible. A quantity called the relative energy difference (RED) may be used to measure relative distance:
where Ro is the radius of the sphere that contains all good solvents. […] Generally, a value of Ro=7.1 is typical. For RED<1, the molecules are alike and will dissolve. For RED=1, the system will partially dissolve. For RED>1, the system will not dissolve.
A solvent with similar HSP values to these, or a solvent for which Ra (calculated as shown above) is small, or for which RED is less than or equal to 1, would be expected to partially solvate and soften plant leaf cuticle waxes.

[3] = HSP distance to lower plant wax HSP values (δD=16.0-16.3, δP 0-2.5, δH=0-3.1)
[4] = HSP distance to upper plant wax HSP values (δD=16.0-16.3, δP 0-2.5, δH=0-3.1)

Compound	δD [1] [MPa^1/2]	δH [1] [MPa^1/2]	δP [1] [MPa^1/2]	Ra 2 [2, 3]	Ra 1 [2, 4]	RED 1 [2]	RED 2 [2]	Ra 1 [2]	Ra 2 [2]
OC1CCCCC1 [cyclohexanol]	17.4	13.5	4.1	10.7	14.4	2.03	1.51	–	–
O=C1OCCO1 [Ethylene Carbonate]	–	–	–	19.6	22.6	3.19	2.76	–	–
CCCCOC(=O)CC(C)O (stereo not shown) [butyl-3-hydroxybutyrate]	16.10	11.50	6.40	9.3	13.2	1.85	1.31	–	–
CCCCCCCC/C=C\CCCCCCCC(=O)OC [Methyl Oleate]	16.2	4.5	3.8	1.9	5.9	0.83	0.27	–	–
CC(=O)OC(C)(C)C [t-Butyl Acetate]	15	6	3.7	4.1	7.3	1.03	0.57	–	–
CC1COC(=O)O1 (stereo not shown) [Propylene Carbonate]	20	4.1	18	17.2	20.1	2.83	2.42	–	–
CCCCCCCCCCCC(=O)OC [methyl dodecanoate]	16.54	5.43	2.06	2.4	5.9	0.83	0.34	–	–
CC1=CC[C@@H](C(C)(C)O)CC1 [alpha terpineol]	16.1	11.2	4.6	8.4	12.1	1.71	1.18	–	–
CCCCOC(=O)c1ccccc1 [butyl benzoate]	18.3	5.5	5.6	5.6	9.1	1.28	0.79	–	–
CC12CCC(CC1)C(C)(C)O2 [eucalyptol]	17	3.3	4	2.1	5.6	0.78	0.29	–	–
CCCCOCCO [Ethylene Glycol Monobutyl Ether]	16	12.3	5.1	9.6	13.3	1.88	1.35	–	–
CC1=CC(=O)CC(C)(C)C1 [isophorone]	16.6	7.4	8.2	7.2	11.1	1.56	1.01	–	–
C1CCCCC1 [cyclohexane]	16.8	0.2	0	4.0	1.6	0.23	0.56	–	–
CCCCCCOC(C)=O [hexyl acetate]	15.95	5.93	3.07	3.0	6.7	0.94	0.42	–	–
CCCCCCCC(=O)OC [methyl octanoate]	16.58	5.85	2.4	2.8	6.4	0.91	0.40	–	–
CCCCCCC [heptane]	15.34	0	0	4.4	1.3	0.19	0.62	–	–
CCCCCCCO [heptanol]	16.57	12.27	4.09	9.3	13.0	1.83	1.31	–	–
CCCCOC(C)=O [n-Butyl Acetate]	15.8	6.3	3.7	3.6	7.3	1.03	0.50	–	–
Cc1cccc(O)c1 [m-Cresol]	18.5	13.7	6.5	12.2	16.0	2.25	1.71	–	–
C=C(C)[C@H]1CC=C(C)CC1 [d-limonene]	17.2	4.3	1.8	2.3	5.2	0.74	0.32	–	–
CC1=CC=C(C(C)C)CC1 [alpha terpinene]	16.2	4.6	1	2.1	4.7	0.67	0.30	–	–
O=C(OCc1ccccc1)c1ccccc1 [Benzyl Benzoate]	20	5.2	5.1	8.1	10.8	1.52	1.14	–	–
Dimethyl Cyclohexane	16.1	1.1	0	3.2	1.1	0.16	0.45	–	–
CC1CCCCC1 [Methyl Cyclohexane]	16	1	0	–	–	0.14	0.47	1.0	3.3
CCCCOC(=O)CC [n-Butyl Propionate]	15.7	5.9	5.5	–	–	1.14	0.60	8.1	4.3
CC(C)(C)O [t-Butyl Alcohol]	15.2	14.7	5.1	12.1	15.6	2.20	1.70	–	–
CC(=O)OCCC(C)C [Iso-Pentyl Acetate]	15.3	7	3.1	4.4	7.8	1.10	0.62	–	–
C=CC(C)(O)CCC=C(C)C (stereo not shown) [linalool]	16.5	6.9	2.8	3.8	7.5	1.06	0.54	–	–
